This assay has as its target T1, human PDE2A1 (Homo sapiens, UniProt O00408).
T1 construct: GST; purchased BPS Bioscience (San Diego, Calif.) 60020; host or cells: insect cells
The experiment in a line: IMAP FP PDE assay, human PDE2A1. The assay is classed as biochemical. To be noted: Lab B; read-out: Human PDE2 Ki (nM) Lab B. As for the experimental part:
Selectivity for PDE2, as compared to other PDE families, was assessed using the IMAP® technology. Human PDE10A2 enzyme was prepared from cytosolic fractions of transiently transfected HEK cells. All other PDE's were GST Tag human enzyme expressed in insect cells and were obtained from BPS Bioscience (San Diego, Calif.): PDE1A (Cat#60010), human PDE2A1 (Cat#60020), PDE3A (Cat#60030), PDE4A1A (Cat#60040), PDE5A1 (Cat#60050), PDE6C (Cat#60060), PDE7A (Cat#60070), PDE8A1 (Cat#60080), PDE9A2 (Cat#60090), PDE11A4 (Cat#60110).
Assays for PDE 1 through 11 were performed in parallel at room temperature in 384-well microtiter plates with an incubation volume of 20.2 μL. Solutions of test compounds were prepared in DMSO and serially diluted with DMSO to yield 30 μL of each of ten solutions differing by 3-fold in concentration, at 32 serial dilutions per plate. […] A Labcyte POD 810 (Labcyte, Sunnyvale, Calif.) was used to dispense 200 nL from each well of the titration plate to make eleven copies of the assay plate for each titration, one copy for each PDE enzyme. A solution of each enzyme (dilution from aliquots, sufficient to produce 20% substrate conversion) and a separate solution of FAM-labeled cAMP or FAM-labeled cGMP from Molecular Devices (Sunnyvale, Calif., product # R7506 or cGMP#R7508), at a final concentration of 50 nM were made in the assay buffer (10 mM Tris HCl, pH 7.2, 10 mM MgCl2, 0.05% NaN3 0.01% Tween-20, and 1 mM DTT). Note that the substrate for PDE2 is 50 nM FAM cAMP containing 1000 nM of cGMP. The enzyme and the substrate were then added to the assay plates in two consecutive additions of 10 μL and then shaken to mix. The reaction was allowed to proceed at room temperature for 60 minutes. A binding solution was then made from the kit components, comprised of 80% Solution A, 20% Solution B and binding reagent at a volume of 1/600 the total binding solution. The enzymatic reaction was stopped by addition of 60 μL of the binding solution to each well of the assay plate. The plates were sealed and shaken for 10 seconds. The plates were incubated at room temperature for one hour, then the parallel and perpendicular fluorescence was measured using a Tecan Genios Pro plate reader (Tecan, Switzerland). The apparent inhibition constants for the compounds against all 11 PDE's was determined from the parallel and perpendicular fluorescent readings as described for PDE10 FP assay using the following apparent KM values for each enzyme and substrate combination: PDE1A (FAM cGMP) 70 nM, human PDE2A1 (FAM cAMP) 10,000 nM, PDE3A (FAM cAMP) 50 nM, PDE4A1A (FAM cAMP) 1500 nM, PDE5A1 (FAM cGMP) 400 nM, PDE6C (FAM cGMP) 700 nM, PDE7A (FAM cAMP) 150 nM, PDE8A1 (FAM cAMP) 50 nM, PDE9A2 (FAM cGMP) 60 nM, PDE10A2 (FAM cAMP) 150 nM, PDE11A4 (FAM cAMP) 1000 nM. The intrinsic PDE2 inhibitory activity of a compound which may be used in accordance with the present invention may be determined by these assays.

By Ki is commonly meant the dissociation constant of the complex between target and ligand, obtained from inhibition or displacement.

T1 sequence (O00408 1-920 isoform O00408-2): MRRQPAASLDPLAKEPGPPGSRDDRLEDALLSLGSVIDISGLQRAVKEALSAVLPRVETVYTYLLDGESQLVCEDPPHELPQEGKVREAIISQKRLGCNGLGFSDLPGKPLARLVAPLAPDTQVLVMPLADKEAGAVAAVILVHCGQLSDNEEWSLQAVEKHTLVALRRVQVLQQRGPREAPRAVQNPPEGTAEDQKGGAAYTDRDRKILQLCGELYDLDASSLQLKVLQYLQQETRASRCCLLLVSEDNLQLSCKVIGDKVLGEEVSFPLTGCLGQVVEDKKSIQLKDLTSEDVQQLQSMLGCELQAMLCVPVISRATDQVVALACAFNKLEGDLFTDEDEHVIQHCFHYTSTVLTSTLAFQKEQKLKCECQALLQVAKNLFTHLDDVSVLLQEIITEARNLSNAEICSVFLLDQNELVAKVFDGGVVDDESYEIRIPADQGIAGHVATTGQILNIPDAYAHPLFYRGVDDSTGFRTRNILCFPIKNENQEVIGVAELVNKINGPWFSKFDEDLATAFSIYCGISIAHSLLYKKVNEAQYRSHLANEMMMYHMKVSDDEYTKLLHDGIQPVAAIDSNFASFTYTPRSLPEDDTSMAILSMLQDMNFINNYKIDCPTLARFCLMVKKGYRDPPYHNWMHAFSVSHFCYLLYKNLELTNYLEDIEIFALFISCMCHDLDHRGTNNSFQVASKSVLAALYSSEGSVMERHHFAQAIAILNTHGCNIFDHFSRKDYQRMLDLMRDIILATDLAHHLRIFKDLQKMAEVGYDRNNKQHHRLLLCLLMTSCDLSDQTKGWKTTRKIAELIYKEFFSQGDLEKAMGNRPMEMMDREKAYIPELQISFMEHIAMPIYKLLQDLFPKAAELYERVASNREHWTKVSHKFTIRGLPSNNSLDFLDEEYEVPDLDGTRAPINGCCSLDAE

As to `CCc1nc2c(c(CO)nn2C(C)c2ccc(C(F)(F)F)cc2)c(=O)[nH]1` (single isomer, unassigned) [Example 302, (S)- or (R)-6-Ethyl-3-(hydroxymethyl)-1-{1-[4-(trifluoromethyl)phenyl]ethyl}-1,5-dihydro-4H-pyrazolo[3,4-d]pyrimidin-4-one], the Ki is 116 nM.

For `CC(c1ccc(C(F)(F)F)cc1)n1nc(CO)c2c(=O)[nH]c(C3CCCO3)nc21` (single isomer, unassigned) [Example 312, (S,S)- or (R,S)- or (S,R)- or (R,R)-3-(Hydroxymethyl)-6-(tetrahydrofuran-2-yl)-1-(1-(4-(trifluoromethyl-)phenyl)ethyl)-1,5-dihydro-4H-pyrazolo[3,4-d]pyrimidin-4-one], the inhibition constant (Ki) is around 1860 nM.

For the compound `CC(c1ccc(C(F)(F)F)cc1)n1nc(CO)c2c(=O)[nH]c(C3CC3)nc21` (single isomer, unassigned) [Example 299, (R)- or (S)-6-Cyclopropyl-3-(hydroxymethyl)-1-{1-[4-(trifluoromethyl)phenyl]ethyl}-1,5-dihydro-4H-pyrazolo[3,4-d]pyrimidin-4-one], the inhibitory constant (Ki) turned out to be 157 nM.

For the compound `COCc1nc2c(c(CO)nn2C(C)c2ccc(S(F)(F)(F)(F)F)cc2)c(=O)[nH]1` (single isomer, unassigned) [Example 317, (R)- or (S)-3-(Hydroxy-methyl)-6-(methoxy-methyl)-1-{1-[4-(pentafluoro-sulfanyl)-phenyl]ethyl}-1,5-dihydro-4H-pyrazolo[3,4-d]pyrimidin-4-one], the Ki was found to be 150 nM.

On to `Cc1nc2c(c(CO)nn2C(C)c2ccc(OC(F)F)cc2F)c(=O)[nH]1` (single isomer, unassigned) [Example 118, (R)- or (S)-1-(1-(4-(Difluoromethoxy)-2-fluorophenypethyl)-3-(hydroxymethyl)-6-methyl-1H-pyrazolo[3,4-d]pyrimidin-4(5H)-one], for which the Ki was found to be 323 nM.

For `Cc1nc2c(c(CO)nn2C(C)c2ccc(OC(F)F)cc2F)c(=O)[nH]1` (single isomer, unassigned) [Example 119, (S)- or (R)-1-(1-(4-(Difluoromethoxy)-2-fluorophenypethyl)-3-(hydroxymethyl)-6-methyl-1H-pyrazolo[3,4-d]pyrimidin-4(5H)-one], the inhibitory constant (Ki) worked out at 2.7 nM.

On to `Cc1nc2c(c(C(=O)N(C)C)nn2C(C)c2ccc(C(F)(F)F)cc2)c(=O)[nH]1` (single isomer, unassigned) [Example 267, (S)- or (R)-N,N,6-Trimethyl-4-oxo-1-(1-(4-(trifluoromethyl)phenyl)ethyl)-4,5-dihydro-1H-pyrazolo[3,4-d]pyrimidine-3-carboxamide], for which the inhibitory constant (Ki) was above 2960 nM.

On to `CC(c1ccc(C(F)(F)F)cc1)n1nc(CO)c2c(=O)[nH]c(CC3CC3)nc21` (single isomer, unassigned) [Example 309, (R)- or (S)-6-(Cyclopropyl-methyl)-3-(hydroxymethyl)-1-(1-(4-(trifluoromethyl)phenyl)ethyl)-1,5-dihydro-4H-pyrazolo[3,4-d]pyrimidin-4-one], for which the Ki came to 420 nM.

As to `Cc1nc2c(c(-c3cn[nH]c3)nn2C(C)c2ccc(C(F)(F)F)cc2)c(=O)[nH]1` (single isomer, unassigned) [Example 237], the inhibition constant Ki came out at 2.5 nM.

Consider `Cc1nc2c(c(CF)nn2C(c2ccc(OC(F)(F)F)c(F)c2)C2CC2)c(=O)[nH]1` (single isomer, unassigned) [Example 229, (S)- or (R)-1-(Cyclopropyl(3-fluoro-4-(trifluoromethoxy)phenyl)methyl)-3-(fluoromethyl)-6-methyl-1,5-dihydro-4H-pyrazolo[3,4-d]pyrimidin-4-one], for which the Ki was found to be 2 nM.

As to `Cc1nc2c(c(C(F)F)nn2C(C)c2ccc(SC(F)(F)F)cc2)c(=O)[nH]1` (single isomer, unassigned) [Example 179, (R)- or (S)-3-(Difluoromethyl)-6-methyl-1-(1-(4-(trifluoromethylthio)phenyl)ethyl)-1H-pyrazolo[3,4-d] pyrimidin-4(5H)-one], the Ki was found to be 28 nM.

With `Cc1nc2c(c(C(=O)N3CCOCC3)nn2C(C)c2ccc(C(F)(F)F)cc2)c(=O)[nH]1` (single isomer, unassigned) [Example 271, (S)- or (R)-6-Methyl-3-(morpholine-4-carbonyl)-1-(1-(4-(trifluoromethyl)phenyl)ethyl)-1H-pyrazolo[3,4-d]pyrimidin-4(5H)-one], the Ki is above 2960 nM.

`Cc1nc2c(c(-c3ccn[nH]3)nn2C(C)c2ccc(C(F)(F)F)cc2)c(=O)[nH]1` (single isomer, unassigned) [Example 235]: the Ki amounted to 25 nM.

For the compound `CC(=O)NCc1nn(C(C)c2ccc(C(F)(F)F)cc2)c2nc(C)[nH]c(=O)c12` (single isomer, unassigned) [Example 276], the Ki was around 1520 nM.

With `Cc1nc2c(c(CO)nn2C(C)c2c(F)cc(C(F)(F)F)cc2F)c(=O)[nH]1` (single isomer, unassigned) [Example 136], the Ki stood at 5 nM.

With `CC(c1ccc(S(F)(F)(F)(F)F)cc1)n1nc(CO)c2c(=O)[nH]c(C3CC3)nc21` (single isomer, unassigned) [Example 316, (S)- or (R)-6-Cyclopropyl-3-(hydroxymethyl)-1-{1-[4-(pentafluoro-sulfanyl)-phenyl]ethyl}-1,5-dihydro-4H-pyrazolo[3,4-d]pyrimidin-4-one], the Ki was determined as 72 nM.

Turning to `Cc1nc2c(c(C3CCCO3)nn2C(C)c2ccc(C(F)(F)F)cc2)c(=O)[nH]1` (single isomer, unassigned) [Example 71, (R, S)- or (R, R)- or (S, R)- or (S, S)-6-Methyl-3-(-tetrahydrofuran-2-yl)-1-(-l-(4-(trifluoromethyl)phenyl)ethyl)-1H-pyrazolo[3,4-d]pyrimidin-4(5H)-one], the inhibition constant Ki turned out to be 111 nM.

Regarding `Cc1nc2c(c(CO)nn2C(C)c2ccc(OC(F)F)c(F)c2)c(=O)[nH]1` (single isomer, unassigned) [Example 113, (S)- or (R)-1-(1-(4-(Difluoromethoxy)-3-fluorophenyl)ethyl)-3-(hydroxymethyl)-6-methyl-1H-pyrazolo[3,4-d]pyrimidin-4(5H)-one], the Ki is 3 nM.

Turning to `Cc1nc2c(c(-c3nnco3)nn2C(C)c2ccc(C(F)(F)F)cc2)c(=O)[nH]1` (single isomer, unassigned) [Example 263], the inhibition constant (Ki) came to 0.88 nM.

As for `CC(c1ccc(C(F)(F)F)cc1)n1nc(CO)c2c(=O)[nH]c(CC3CC3)nc21` (single isomer, unassigned) [Example 310, (S)- or (R)-6-(Cyclopropyl-methyl)-3-(hydroxymethyl)-1-(1-(4-(trifluoromethyl)phenyl)ethyl)-1,5-dihydro-4H-pyrazolo[3,4-d]pyrimidin-4-one], the Ki amounted to 11 nM.

Regarding `CCc1nc2c(c(CO)nn2C(C)c2ccc(C(F)(F)F)cc2)c(=O)[nH]1` (single isomer, unassigned) [Example 301, (R)- or (S)-6-Ethyl-3-(hydroxymethyl)-1-{1-[4-(trifluoromethyl)phenyl]ethyl}-1,5-dihydro-4H-pyrazolo[3,4-d]pyrimidin-4-one], the Ki was 4.7 nM.

On to `Cc1nc2c(c(CO)nn2C(C)c2ncn(CC(F)(F)F)n2)c(=O)[nH]1` (single isomer, unassigned) [Example 148], for which the Ki came to 671 nM.

Regarding `Cc1nc2c(c(C(F)F)nn2C(C)c2ccc(OC(F)(F)F)cc2)c(=O)[nH]1` (single isomer, unassigned) [Example 178, (S)- or (R)-3-(Difluoromethyl)-6-methyl-1-(1-(4-(trifluoromethoxy)phenyl)ethyl)-1H-pyrazolo[3,4-d]pyrimidin-4(5H)-one], the Ki came to 0.72 nM.

The record behind these values is patent publication US10160762B2, “6-alkyl dihydropyrazolopyrimidinone compounds as PDE2 inhibitors” (Merck Sharp & Dohme Corp., priority 2015, dated 2018).
